Data reported in ChEMBL document CHEMBL1148294, “Synthesis, in vitro evaluation, and antileishmanial activity of water-soluble prodrugs of buparvaquone” (J Med Chem, 2004).
Values after ≈ are worked out from the molar mass of the structure shown.

Legend:
[1] = Distribution Coefficient at pH 3; assay type: physicochemical; conditions: octanol/water
[2] = Aqueous Solubility at pH 7.4; assay type: physicochemical
Leishmania donovani [3] = experiment: Effective dose was determined for intracellular amastigotes of Leishmania donovani L82 at 72 hr in infected macrophages at 37C (experiment 1); conditions: read-out: ED50 (the source's name)
Leishmania aethiopica [4] = experiment: Effective dose was determined for extracellular promastigotes of Leishmania aethiopica Khartoum at 72 h; assay type: functional; conditions: read-out: ED50 (the source's name)
[5] = Half-life for rate of hydrolysis was determined at pH 5; assay type: ADME; conditions: buffer
[6] = Aqueous Solubility at pH 5; assay type: physicochemical
[7] = Distribution Coefficient at pH 5; assay type: physicochemical; conditions: octanol/water
[8] = Aqueous Solubility at pH 3; assay type: physicochemical
Leishmania major [9] = experiment: Effective dose was determined for intracellular amastigotes of Leishmania major JISH118 at 72 hr in infected macrophages at 34C (experiment 1); assay type: functional; conditions: read-out: ED50 (the source's name)
Leishmania donovani [10] = experiment: Effective dose was determined for extracellular promastigotes of Leishmania donovani L82 at 72 h; assay type: functional; conditions: read-out: ED50 (the source's name)
Leishmania mexicana [11] = experiment: Effective dose was determined for extracellular promastigotes of Leishmania mexicana BEL21 at 72 h; assay type: functional; conditions: read-out: ED50 (the source's name)
[12] = Distribution Coefficient at pH 7.4; assay type: physicochemical; conditions: octanol/water
Leishmania panamensis [13] = experiment: Effective dose was determined for intracellular amastigotes of Leishmania panamensis BOYNTON at 72 h in infected macrophages at 34 degree C (experiment 2); conditions: read-out: ED50 (the source's name)
Leishmania panamensis [14] = experiment: Effective dose was determined for extracellular promastigotes of Leishmania panamensis BOYNTON at 72 h; assay type: functional; conditions: read-out: ED50 (the source's name)
Leishmania aethiopica [15] = experiment: Effective dose was determined for intracellular amastigotes of Leishmania aethiopica Khartoum at 72 hr in infected macrophages at 34 degree C (experiment 2); conditions: read-out: ED50 (the source's name)
Leishmania major [16] = experiment: Effective dose was determined for extracellular promastigotes of Leishmania major JISH118 at 72 h; assay type: functional; conditions: read-out: ED50 (the source's name)
Leishmania aethiopica [17] = experiment: Effective dose was determined for intracellular amastigotes of Leishmania aethiopica Khartoum at 72 hr in infected macrophages at 34C (experiment 1); assay type: functional; conditions: read-out: ED50 (the source's name)
alkaline phosphatase = experiment: Half-life for rate of hydrolysis was determined in alkaline phosphatase solution (pH 7.4); assay type: ADME
Leishmania amazonensis [18] = experiment: Effective dose was determined for intracellular amastigotes of Leishmania amazonensis LV81 at 72 hr in infected macrophages at 34C (experiment 1); assay type: functional; conditions: read-out: ED50 (the source's name)
Leishmania amazonensis [19] = experiment: Effective dose was determined for extracellular promastigotes of Leishmania amazonensis LV81 at 72 h; assay type: functional; conditions: read-out: ED50 (the source's name)
Leishmania donovani [20] = experiment: Effective dose was determined for intracellular amastigotes of Leishmania donovani L82 at 72 hr in infected macrophages at 37 degree C (experiment 2); assay type: functional; conditions: read-out: ED50 (the source's name)
Leishmania major [21] = experiment: Effective dose was determined for intracellular amastigotes of Leishmania major JISH118 at 72 hr in infected macrophages at 34 degree C (experiment 2); conditions: read-out: ED50 (the source's name)
Leishmania mexicana [22] = experiment: Effective dose was determined for extracellular promastigotes of Leishmania mexicana LV4 at 72 h; assay type: functional; conditions: read-out: ED50 (the source's name)
[23] = Ionization constant (pKa) was determined; assay type: physicochemical
Leishmania mexicana [24] = experiment: Effective dose was determined for intracellular amastigotes of Leishmania mexicana LV4 at 72 hr in infected macrophages at 34 degree C (experiment 2); conditions: read-out: ED50 (the source's name)
Leishmania panamensis [25] = experiment: Effective dose was determined for intracellular amastigotes of Leishmania panamensis BOYNTON at 72 hr in infected macrophages at 34C (experiment 1); assay type: functional; conditions: read-out: ED50 (the source's name)
[26] = Half-life for rate of hydrolysis was determined in human skin homogenate (pH 7.4); assay type: ADME, tissue-based, Zone of skin
[27] = Half-life for rate of hydrolysis was determined at pH 3; assay type: ADME; conditions: buffer
Leishmania mexicana [28] = experiment: Effective dose was determined for intracellular amastigotes of Leishmania mexicana LV4 at 72 hr in infected macrophages at 34C (experiment 1); assay type: functional; conditions: read-out: ED50 (the source's name)
[29] = Half-life for rate of hydrolysis was determined at pH 7.4; assay type: ADME; conditions: buffer

Row | logD [1] | solubility [2] [µg/mL] | EC50 (Leishmania donovani [3]) [nM] | EC50 (Leishmania aethiopica [4]) [nM] | solubility [6] [µg/mL] | solubility [8] [µg/mL] | EC50 (Leishmania major [9]) [nM] | EC50 (Leishmania donovani [10]) [nM] | EC50 (Leishmania mexicana [11]) [nM] | EC50 (Leishmania panamensis [13]) [nM] | EC50 (Leishmania panamensis [14]) [nM] | EC50 (Leishmania aethiopica [15]) [nM] | EC50 (Leishmania major [16]) [nM] | EC50 (Leishmania aethiopica [17]) [nM] | EC50 (Leishmania amazonensis [18]) [nM] | EC50 (Leishmania amazonensis [19]) [nM] | EC50 (Leishmania donovani [20]) [nM] | EC50 (Leishmania major [21]) [nM] | EC50 (Leishmania mexicana [22]) [nM] | pKa [23] | Structure (SMILES) | further results
1 | 1.87 | > 3500 | 4120 | 122 | > 3500 | > 3500 | 1370 | 9 | 24 | 2060 | 124 | 7350 | 64 | 2330 | 15700 | 24 | 4310 | 6270 | 39 | 2.68 | CC(C)(C)C1CCC(CC2=C(OP(=O)(O)O)C(=O)c3ccccc3C2=O)CC1 (stereo not drawn) | half-life [5]: 50 h; logD [7]: 1.27; logD ([12]; read-out: logD): 0.47; half-life (alkaline phosphatase): 1.2 min; EC50 (Leishmania mexicana [24]): 4030 nM; EC50 (Leishmania panamensis [25]): 555 nM; half-life [26]: 8.7 h; half-life [27]: 72 h; EC50 (Leishmania mexicana [28]): 7030 nM; half-life [29]: 17 h
2 | 7.02 | 0.03 (≈ 9.19e-05 mM) | 480 | 13 | < 0.03 | < 0.03 | 434 | 6 | 2 | 923 | 42 | 3640 | 1 | 633 | 5500 | 4 | 430 | 1800 | 4 | 5.7 | CC(C)(C)[C@H]1CC[C@H](CC2=C(O)C(=O)c3ccccc3C2=O)CC1 [BUPARVAQUONE] | EC50 (Leishmania mexicana [24]): 1250 nM; EC50 (Leishmania panamensis [25]): 370 nM; EC50 (Leishmania mexicana [28]): 1440 nM
3 | 2.96 | > 3500 | 1250 | 57 | > 3500 | > 3500 | 810 | 3 | 5 | 1190 | 120 | 3990 | 12 | 1660 | 8810 | 7 | 1220 | 1890 | 10 | 2.28 | CC(C)(C)C1CCC(CC2=C(OCOP(=O)(O)O)C(=O)c3ccccc3C2=O)CC1 (stereo not drawn) | half-life [5]: 8 h; logD [7]: 1.83; logD [12]: 1.16; half-life (alkaline phosphatase): 3.8 min; EC50 (Leishmania mexicana [24]): 2510 nM; EC50 (Leishmania panamensis [25]): < 1120 nM; half-life [26]: 0.175 h; half-life [27]: 97 h; EC50 (Leishmania mexicana [28]): 2580 nM; half-life [29]: 0.5 h
